Test results from patent US9643999B2 (Bristol-Myers Squibb Company, priority 2012, dated 2017).
pEC50: −log10 of the molar value. Where two headings read alike, the source gives them in different places.

Key:
HCV genotype 1a replicon = experiment: HCV replicon luciferase reporter assay, genotype 1a (LE_1a); assay type: cell-based; conditions: Hepatitis C virus, 72 h, HUH-7 cells, genotype 1a H77 replicon, 3 days incubation, Renilla luciferase
Excerpt: (§1) An HCV replicon whole cell system was established as described by Lohmann V, Korner F, Koch J, Herian U, Theilmann L, Bartenschlager R., Science 285(5424):110-3 (1999) and modified to introduce a luciferase reporter, as first described by Krieger et al (Krieger N, Lohmann V, and Bartenschlager R, J. Virol. 75(10):4614-4624 (2001)). cDNA encoding a humanized form of the Renilla luciferase gene and a linker sequence fused directly to the 3′-end of the luciferase gene were introduced into the replicon construct using an Asc1 restriction site located in core, directly upstream of the neomycin marker gene. The adaptive mutation at position 1179 (serine to isoleucine) was also introduced (Blight K J, Kolykhalov, A A, Rice, C M, Science 290(5498):1972-1974). A stable cell line constitutively expressing this HCV replicon construct was generated by first linearizing plasmid DNAs with ScaI. RNA transcripts were synthesized in vitro using the T7 MegaScript transcription kit (Ambion, Austin, Tex.) according to manufacturer's directions. In vitro transcripts of the cDNA were transfected into the human hepatoma cell line, HUH-7. […] Resulting cell lines were characterized for positive and negative strand RNA production and protein production over time.
A stable HCV replicon luciferase reporter cell line representing the genotype 1a H77 strain (Yanagi M, Purcell R H, Emerson S U, et al. Transcripts from a single full-length cDNA clone of hepatitis C virus are infectious when directly transfected into the liver of a chimpanzee. Proc Natl Acad Sci USA 1997; 94(16):8738-8743) was generated as described previously for the genotype 1b(Con1) replicon luciferase cell line. The replicon construct was modified by introducing mutations were introduced into the genes encoding the NS3 helicase domain (proline replaced by leucine at position 1496) and NS5A (serine to isoleucine at position 2204) to improve replication in cell culture.
(§2) HCV replicon luciferase assays were developed to monitor the inhibitory effects of compounds described in the disclosure on HCV genotypes 1a and 1b viral replication. HUH-7 cells, constitutively expressing the HCV replicon, were grown in Dulbecco's Modified Eagle Media (DMEM) (Gibco-BRL) containing 10% Fetal calf serum (FCS) (Sigma) and 1 mg/mL G418 (Gibco-BRL). Compounds were serially diluted 3 folds in DMSO for a twenty-point titration and subsequently transferred to sterile 384-well tissue-culture treated plates (Corning cat #3571). The plates were then seeded with 50 μL of cells at a density of 3.0×10^3 cells/well in DMEM containing 4% FCS (final DMSO concentration at 0.5%). After 3 days incubation at 37° C., cells were analyzed for Renilla Luciferase activity using the EnduRen as substrate (Promega cat #E6485). The EnduRen substrate was diluted in DMEM and then added to the plates to a final concentration of 7.5 μM. The plates were incubated for 2 hrs at 37° C. and then read immediately for 30 seconds with Viewlux Imager (PerkinElmer) using a luminescence program. To assess cytotoxicity of compounds, CC50 values were generated by multiplexing the EnduRen-containing plates with Cell Titer-Blue (Promega, cat #G8082). Cell-Titer Blue (3 μL) was added to each well and incubated for 8 hrs at 37° C. The fluorescence signal from each well was read, with an excitation wavelength at 525/10 nm and an emission wavelength of 598/10 nm, using the Viewlux Imager.
(§3) The EC50 values for compounds were calculated by using a four-parameter logistic equation: y=A+((B−A)/(1+((C/x)^D))), where A and B denotes minimal and maximal % inhibition, respectively, C is the EC50, D is the hill slope and x represents compound concentration.

HCV genotype 1b replicon = experiment: HCV replicon luciferase reporter assay, genotype 1b (LE_1b); assay type: cell-based; conditions: Hepatitis C virus, 72 h, HUH-7 cells, genotype 1b (Con1) replicon, 3 days incubation, Renilla luciferase
Excerpt: as §1, with “time. […]” for “time.”
as §2, §3

Row | Structure (SMILES) | pEC50 (HCV genotype 1a replicon; read-out: LE_1a (EC50, range)) | pEC50 (HCV genotype 1b replicon; read-out: LE_1b (EC50, range)) | pEC50 (HCV genotype 1a replicon; read-out: LE_1a (EC50)) | pEC50 (HCV genotype 1b replicon; read-out: LE_1b (EC50))
1 | CC[C@@H]1C[C@H](C)CC/C=C\[C@@H]2C[C@@]2(C(=O)NS(=O)(=O)C2(C)CC2)NC(=O)[C@@H]2C[C@@H](Oc3ncc(-c4nccs4)c4cc(OC)ccc34)CN2C(=O)[C@H]1NC(=O)OC(C)(C)C [Compound 4255, tert-butyl((2R,6S,7R,9R,13aS,14aR,16aS,Z)-7-ethyl-2-((6-methoxy-4-(thiazol-2-yl)isoquinolin-1-yl)oxy)-9-methyl-14a-(((1-methylcyclopropyl)sulfonyl)carbamoyl)-5,16-dioxo-1,2,3,5,6,7,8,9,10,11,13a,14,14a,15,16,16a-hexadecahydrocyclopropa[e]pyrrolo[1,2-a][1,4]diazacyclopentadecin-6-yl)carbamate] | 8.30 to 9.00 | 9.00 to 9.29 | – | –
2 | CC[C@@H]1C[C@H](C)CC/C=C\[C@@H]2C[C@@]2(C(=O)NS(=O)(=O)C2(C)CC2)NC(=O)[C@@H]2C[C@@H](Oc3ncc(-c4nccs4)c4cc(OC)ccc34)CN2C(=O)[C@H]1NC(=O)OC(C)(C)C(F)(F)F [Compound 4258] | 8.30 to 9.00 | 8.30 to 9.00 | – | –
3 | COc1ccc2nc(O[C@@H]3C[C@H]4C(=O)N[C@]5(C(=O)NS(=O)(=O)C6(C)CC6)C[C@H]5/C=C\CC[C@@H](C)C[C@@H](C)[C@H](NC(=O)OC(C)(C)C)C(=O)N4C3)c(C3CC3)nc2c1 [Compound 4303] | 8.30 to 9.00 | 8.30 to 9.00 | – | –
4 | COc1ccc2c(O[C@@H]3C[C@H]4C(=O)N[C@]5(C(=O)NS(=O)(=O)C6(C)CC6)C[C@H]5/C=C\CC[C@@H](C)C[C@@H](C)[C@H](NC(=O)OC(C)(C)C(F)(F)F)C(=O)N4C3)cc(-n3ccc(C(F)(F)F)n3)nc2c1 [Compound 4301] | 9.00 to 9.29 | 9.00 to 9.29 | – | –
5 | Cc1cn2c(n1)nc(O[C@@H]1C[C@H]3C(=O)N[C@]4(C(=O)NS(=O)(=O)C5(C)CC5)C[C@H]4/C=C\CC[C@@H](C)C[C@@H](C)[C@H](NC(=O)OC(C)(C)C(C)(F)F)C(=O)N3C1)c1cc(Cl)ccc12 [Compound 6137] | 8.30 to 9.00 | 9.00 to 9.29 | – | –
6 | CC[C@@H]1C[C@H](C)CC/C=C\[C@@H]2C[C@@]2(C(=O)NS(=O)(=O)C2(C)CC2)NC(=O)[C@@H]2C[C@@H](Oc3cc(-n4ccc(C(C)C)n4)nc4cc(OC)ccc34)CN2C(=O)[C@H]1NC(=O)OC(C)(C)C(F)(F)F [Compound 4358] | 8.30 to 9.00 | 8.30 to 9.00 | – | –
7 | CC[C@@H]1C[C@H](C)CC/C=C\[C@@H]2C[C@@]2(C(=O)NS(=O)(=O)C2(C)CC2)NC(=O)[C@@H]2C[C@@H](Oc3nccc4c5c(ccc34)CCO5)CN2C(=O)[C@H]1NC(=O)OC(C)(C)C(F)(F)F [Compound 5500] | 7.46 to 8.30 | 7.46 to 8.30 | – | –
8 | Cc1cnc(-c2ccc3nc(C(F)(F)F)c(O[C@@H]4C[C@H]5C(=O)N[C@]6(C(=O)NS(=O)(=O)C7(C)CC7)C[C@H]6/C=C\CC[C@@H](C)C[C@@H](C)[C@H](NC(=O)OC(C)(C)C(F)(F)F)C(=O)N5C4)nc3c2)o1 [Compound 7002] | 8.30 to 9.00 | 9.00 to 9.29 | – | –
9 | CC[C@@H]1C[C@H](C)CC/C=C\[C@@H]2C[C@@]2(C(=O)NS(=O)(=O)C2CC2)NC(=O)[C@@H]2C[C@@H](Oc3ncc(-c4nc(C(C)(C)C)cs4)c4cc(OC)ccc34)CN2C(=O)[C@H]1NC(=O)OC(C)(C)C(F)(F)F [Compound 4288] | 7.46 to 8.30 | 7.46 to 8.30 | – | –
10 | C[C@@H]1CC/C=C\[C@@H]2C[C@@]2(C(=O)NS(=O)(=O)C2(C)CC2)NC(=O)[C@@H]2C[C@@H](Oc3nc4nccn4c4ccccc34)CN2C(=O)[C@@H](NC(=O)OC(C)(C)C)[C@H](C)C1 [Compound 6122, tert-butyl((2R,6S,7R,9R,13aS,14aR,16aS,Z)-2-(imidazo[1,2-a]quinazolin-5-yloxy)-7,9-dimethyl-14a-(((1-methylcyclopropyl)sulfonyl)carbamoyl)-5,16-dioxo-1,2,3,5,6,7,8,9,10,11,13a,14,14a,15,16,16a-hexadecahydrocyclopropa[e]pyrrolo[1,2-a][1,4]diazacyclopentadecin-6-yl)carbamate] | 6.84 to 7.46 | 6.84 to 7.46 | 7.14 | 7.14
11 | CC[C@@H]1C[C@H](C)CC/C=C\[C@@H]2C[C@@]2(C(=O)NS(=O)(=O)C2(C)CC2)NC(=O)[C@@H]2C[C@@H](Oc3cc(-n4ccnc4)c4ccc(OC)cc4n3)CN2C(=O)[C@H]1NC(=O)OC(C)(C)C(F)(F)F [Compound 4282] | 7.46 to 8.30 | 8.30 to 9.00 | – | –
12 | C[C@@H]1CC/C=C\[C@@H]2C[C@@]2(C(=O)NS(=O)(=O)C2(C)CC2)NC(=O)[C@@H]2C[C@@H](Oc3nc4cc(C(=O)OC(C)(C)C)ccc4nc3C(F)(F)F)CN2C(=O)[C@@H](NC(=O)OC(C)(C)C(C)(F)F)[C@H](C)C1 [Compound 7001, tert-butyl 3-(((2R,6S,7R,9R,13aS,14aR,16aS,Z)-6-((((3,3-difluoro-2-methylbutan-2-yl)oxy)carbonyl)amino)-7,9-dimethyl-14a-(((1-methylcyclopropyl)sulfonyl)carbamoyl)-5,16-dioxo-1,2,3,5,6,7,8,9,10,11,13a,14,14a,15,16,16a-hexadecahydrocyclopropa[e]pyrrolo[1,2-a][1,4]diazacyclopentadecin-2-yl)oxy)-2-(trifluoromethyl)quinoxaline-6-carboxylate] | 8.30 to 9.00 | 9.00 to 9.29 | – | –
13 | [2H]C([2H])([2H])C1(S(=O)(=O)NC(=O)[C@@]23C[C@H]2/C=C\CC[C@@H](C)C[C@@H](CC)[C@H](NC(=O)OC(C)(C)C(F)F)C(=O)N2C[C@H](Oc4ncc(OC)c5ccccc45)C[C@H]2C(=O)N3)CC1 [Compound 5549] | 9.00 to 9.29 | 9.00 to 9.29 | – | –
14 | CC[C@@H]1C[C@H](C)CC/C=C\[C@@H]2C[C@@]2(C(=O)NS(=O)(=O)C2(C)CC2)NC(=O)[C@@H]2C[C@@H](Oc3cc(-n4ccc(C(C)C)n4)nc4cc(OC)ccc34)CN2C(=O)[C@H]1NC(=O)OC(C)(C)C [Compound 4294] | 9.00 to 9.29 | 9.00 to 9.29 | 9.07 | 9.05
15 | C[C@@H]1CC/C=C\[C@@H]2C[C@@]2(C(=O)NS(=O)(=O)C2(C)CC2)NC(=O)[C@@H]2C[C@@H](Oc3nccc4c5c(ccc34)CCO5)CN2C(=O)[C@@H](NC(=O)OC(C)(C)C)[C@H](C)C1 [Compound 5491, tert-butyl((2R,6S,7R,9R,13aS,14aR,16aS,Z)-2-((2,3-dihydrofuro[2,3-f]isoquinolin-6-yl)oxy)-7,9-dimethyl-14a-(((1-methylcyclopropyl)sulfonyl)carbamoyl)-5,16-dioxo-1,2,3,5,6,7,8,9,10,11,13a,14,14a,15,16,16a-hexadecahydrocyclopropa[e]pyrrolo[1,2-a][1,4]diazacyclopentadecin-6-yl)carbamate] | 7.46 to 8.30 | 8.30 to 9.00 | 8.27 | 8.59
